Test results reported in publication PMC4907692, “Engineering vanilloid-sensitivity into the rat TRPV2 channel” (eLife, 2016).

Columns and labels:
1D4-tagged TRPV2 QM = biological target: T1, 1D4-tagged TRPV2 QM (Rattus norvegicus, UniProt Q9WUD2, F472S/L507M/L510T/Q530E); test: 3H-RTx binding to yeast membranes containing 1D4-tagged TRPV2 QM
T1 construct: made in house; host or cells: S. cerevisiae BJ5457, isolated membranes
T1 sequence (Q9WUD2 1-761 F472S/L507M/L510T/Q530E): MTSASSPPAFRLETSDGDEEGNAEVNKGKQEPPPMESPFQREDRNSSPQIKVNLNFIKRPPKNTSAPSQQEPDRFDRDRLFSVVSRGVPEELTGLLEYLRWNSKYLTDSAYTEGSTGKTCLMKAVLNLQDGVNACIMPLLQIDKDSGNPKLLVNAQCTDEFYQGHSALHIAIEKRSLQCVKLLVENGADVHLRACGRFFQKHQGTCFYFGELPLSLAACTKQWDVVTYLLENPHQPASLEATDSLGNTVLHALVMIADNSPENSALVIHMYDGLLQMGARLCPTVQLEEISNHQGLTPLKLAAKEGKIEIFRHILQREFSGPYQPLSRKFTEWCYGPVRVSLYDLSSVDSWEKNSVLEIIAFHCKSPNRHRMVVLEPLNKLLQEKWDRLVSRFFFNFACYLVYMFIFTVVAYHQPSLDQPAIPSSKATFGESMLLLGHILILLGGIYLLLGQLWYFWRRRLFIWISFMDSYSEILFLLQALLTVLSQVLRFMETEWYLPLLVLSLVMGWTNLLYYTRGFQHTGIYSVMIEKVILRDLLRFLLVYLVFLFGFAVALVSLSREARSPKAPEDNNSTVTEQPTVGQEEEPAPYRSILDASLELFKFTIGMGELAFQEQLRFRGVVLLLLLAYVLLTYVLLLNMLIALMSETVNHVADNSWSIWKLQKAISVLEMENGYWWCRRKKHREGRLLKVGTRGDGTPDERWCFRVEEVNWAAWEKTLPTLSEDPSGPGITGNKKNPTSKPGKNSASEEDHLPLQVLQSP
From the text: To examine the strength of RTx binding to the TRPV2 channel, we undertook binding assays after expressing 1D4-tagged TRPV2 and TRPV2 QM in S. cerevisiae and isolating yeast membranes, similar to the experiments described above with TRPV1 (Figure 2). […] To examine the relative importance of the four residues for mediating RTx sensitivity in the TRPV2 QM, we constructed triple mutants and evaluated their sensitivity to RTx electrophysiologically.
The full-length TRPV1 and TRPV2 channels with 1D4 affinity tags ([…]) on their C-termini were cloned into the YEpHIS vector and expressed in the BJ5457 strain of S. cerevisiae using the strong constitutively active PMA1 promoter, as previously described ([Moiseenkova-Bell et al., 2008]). After 48 hr of expression at 30°C in YPD media, cells were harvested by centrifugation and re-suspended in PBS buffer, supplemented with complete protease inhibitor cocktail (Roche, Indianapolis, IN) and 4-amidinophenylmethanesulfonyl fluoride hydrochloride (APMSF) (Sigma-Aldrich, St. Louis, MO). Cells were broken by passing through an Avestin homogenizer at the pressure of 35 kpsi, cell lysate was cleared by centrifugation at 8,000 g for 15 min and membranes were isolated by ultracentrifugation at 190,000 g for 1 hr. […]
S. cerevisiae cells overexpressing TRPV1 constructs to be used in ligand binding assays on intact cells (Figure 1E,F) were grown as for small scale expression trials. 24 hr after protein induction cells were spun down at 4000g, the supernatant was removed and the pellet resuspended in 1x PBS, normalizing OD600 to 75 for each sample, and aliquoted for storage at -80°C. ^3H-RTx binding assays on cells were performed at 37°C as previously described ([Feng et al., 2015]), but where non-specific binding of RTx was measured using cells expressing GFP alone. […] Data for binding of RTx to membranes was corrected for non-specific binding, determined using either excess non-radioactive ligand or heat inactivation of the protein, as previously described ([Feng et al., 2015]). […]

[1] = test system: TRPV2 triple mutants containing the F472S mutation; test: Two-electrode voltage-clamp in Xenopus oocytes, TRPV2 triple mutants containing F472S; type: cell-based, rat; conditions: 100 nM RTx, +60 mV, normalized to 4 mM 2-APB
From the text: To further investigate the putative vanilloid binding pocket in TRPV1, we inspected the cryo-EM structure of TRPV1, looking for residues that are located nearby to the putative RTx density (Figure 1B; regions/residues highlighted in yellow) and that differ between TRPV1 and TRPV2 channels (Figure 3—figure supplement 1; regions highlighted in magenta). […] To quantify the contribution of each of these residues to TRPV1 channel activation by RTx under our experimental conditions, we mutated each to the corresponding residue in TRPV2. We then expressed each construct in oocytes and used the two electrode voltage-clamp technique to study activation by RTx and by the non-specific TRPV channel activator 2-APB. We recorded time courses for channel activation by each agonist while stepping the membrane potential from −60 to +60 mV every 3 s from a holding potential of 0 mV using an external recording solution containing 100 mM KCl (internal K^+ concentration in a healthy oocyte is 100 mM) (Figure 3A, left). We also recorded current-voltage (I-V) relations by stepping over a wider range of voltages in the absence and presence of activators, or in the presence of ruthenium red (RR), a non-specific inhibitor of TRP channels (Figure 3A, right). […]

C=C(C)[C@]12C[C@@H](C)[C@@]34O[C@](Cc5ccccc5)(O[C@@H]1[C@@H]3C=C(COC(=O)Cc1ccc(O)c(OC)c1)C[C@]1(O)C(=O)C(C)=C[C@@H]41)O2 [RTx, resiniferatoxin]
affinity of RTx for TRPV2 QM lower compared to TRPV1 (1D4-tagged TRPV2 QM): about 30 fold
Hill slope (nH) (1D4-tagged TRPV2 QM; 37°C): 1.7
Kd (1D4-tagged TRPV2 QM; 37°C, read-out: Kd of 3H-RTx binding (Hill fit)): 18 nM
channel activation by RTx [1]: sensitive to RTx
